# Reference: PubChem BioAssay (NCI)
#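 Tested at 5 concentrations; 48 h exposure; 96-well plates; endpoints linearly interpolated, else capped at highest concentration. The concentration for full growth arrest is given as TGI.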
# Assays:
# Assay in all cases: inhibition of tumour cell growth, NCI panel, 48 h
# SNB-75 CNS = system: SNB-75 CNS
# RXF 393 renal = system: RXF 393 renal
# HT29 colon = system: HT29 colon
# RPMI-8226 leukemia = system: RPMI-8226 leukemia
# OVCAR-3 ovarian = system: OVCAR-3 ovarian
# SF-539 CNS = system: SF-539 CNS
# OVCAR-5 ovarian = system: OVCAR-5 ovarian
# SNB-19 CNS = system: SNB-19 CNS
# CCRF-CEM leukemia = system: CCRF-CEM leukemia
SMILES,TGI (SNB-75 CNS) [µM],TGI (RXF 393 renal) [µM],TGI (HT29 colon) [µM],TGI (RPMI-8226 leukemia) [µM],TGI (OVCAR-3 ovarian) [µM],TGI (SF-539 CNS) [µM],TGI (OVCAR-5 ovarian) [µM],TGI (SNB-19 CNS) [µM],TGI (CCRF-CEM leukemia) [µM]
CN(C)c1cccc2c1C(=O)C=CC21CCc2ccc(N(C)C)c3c(N(C)C)ccc1c23 (stereo not given),19.2,20.8,27,58.6,24.8,35.4,49.6,33.4,87.7
Cc1cccc(C)c1Nc1nc(C)c(C(=O)CC(=O)C(=O)Nc2c(C(C)C)cccc2C(C)C)s1,–,> 100,> 100,> 100,> 100,> 100,> 100,> 100,–
CCCC1(CCC)c2cc(/C=N\O)ccc2-c2ccc(-c3ccc(C(C)(C)C)cc3)cc21,> 100,–,> 100,> 100,55,> 100,> 100,> 100,68.8
Cc1ccc2[nH]c3[nH]c(=S)[nH]c(=O)c3c2c1,> 100,> 100,> 100,> 100,> 100,> 100,> 100,> 100,> 100
CC1(C)OC[C@@H](O)[C@H](Br)CO1,> 100,> 100,> 100,> 100,> 100,> 100,> 100,> 100,> 100
CC(C)(C)C1=CC(=C2C=Cc3ccccc3O2)C=C(C(C)(C)C)C1=O,40,7.71,17.3,5.45,7.71,20,15.3,> 50.7,6.12
NC(=O)c1c(NC=O)ncn1C1OCC(O)C(O)C1O (stereo not given),> 100,> 100,> 100,> 100,> 100,> 100,> 100,> 100,> 100
CCOC(=O)c1c(N2CCCC2)ncn(C)c1=S,–,> 100,> 100,> 100,> 100,> 100,> 100,> 100,> 100
COC(=O)/C=C\C(C#N)(C#N)N=Cc1sccc1C,28.4,4.22,3.31,> 24.6,16,–,14.4,33.8,4.19
Cc1ccc2oc3c(c(Br)c(Br)n3C)c(=O)c2c1,–,31.4,> 100,> 100,46.8,37.3,99.7,36,> 100
COc1cccc2cc(C(C)=O)c(=O)oc12,> 100,> 100,> 100,> 100,> 100,> 100,> 100,–,> 100
O=C(Nc1cccc2ccccc12)c1ccccc1,> 100,> 100,> 100,–,> 100,> 100,> 100,> 100,> 100
CC1(C)CCCCCC(C)(CCCO)C1=O (stereo not given),> 100,> 100,> 100,> 100,> 100,–,> 100,> 100,> 100
O=C(Nc1sccc1S(=O)(=O)c1ccccc1)c1ccccc1,> 100,–,> 100,> 100,> 100,> 100,> 100,> 100,–
CN1C(=O)CC2CCC(=O)N2c2cccnc21 (stereo not given),–,–,> 100,> 100,> 100,> 100,–,> 100,> 100
COc1ccc(-n2c(=O)n(-c3ccccc3)c(=O)n2-c2ccc(OC)cc2)cc1,> 100,> 100,–,> 100,> 100,> 100,> 100,> 100,> 100
NC1Cc2ccccc2OC1=O (stereo not given),> 100,> 100,> 100,> 100,> 100,> 100,> 100,> 100,–
CC/C=C/C[C@H](O)[C@H]1C[C@H]2O[C@H](CC(=O)OC)C[C@H]2O1,> 100,> 100,> 100,> 100,> 100,–,> 100,> 100,> 100
O=C1CSC2=NC3=C(CSC/C3=C\c3ccccc3)C(c3ccccc3)N12 (stereo not given),> 100,–,> 100,> 100,> 100,> 100,> 100,–,> 100
CCC(O)c1ccc(N=Cc2ccccc2O)cc1 (stereo not given),> 100,> 100,> 100,> 100,> 100,> 100,> 100,> 100,–
COc1ccccc1NCc1cccc2c(=O)c3ccc(Cl)cc3oc12,> 100,–,> 100,> 100,> 100,> 100,> 100,> 100,> 100
C=CCCCCOC1C=CC(O)C(CO)O1 (stereo not given),–,> 100,> 100,> 100,> 100,> 100,> 100,> 100,> 100
C(=Nc1ccc(-c2nc3ccccc3[nH]2)cc1)c1ccco1,> 100,> 100,> 100,> 100,> 100,> 100,> 100,–,> 100
COC1CCC(=O)N1CN(C(C)=O)c1ccc(C)cc1 (stereo not given),> 100,> 100,> 100,> 100,> 100,> 100,> 100,> 100,–
Cc1ccc(S(=O)(=O)N/N=C2/CC3CCC4CC2CC34)cc1 (stereo not given),> 100,–,> 100,> 100,> 100,> 100,> 100,> 100,> 100
